pIC50: −log10 of the molar value.
Columns and labels:
Cytochrome P450 26A1 = molecular target: T1, Cytochrome P450 26A1 (Homo sapiens, UniProt O43174); experiment: (§1) Cell-Based Inhibitor Assay: CYP26A1 or CYP26B1 stably transfected HeLa cells were maintained in Minimum Essential Medium (MEM) containing 10% fetal bovine serum (FBS) and 100 μg/mL hygromycin. Exponentially growing cells were harvested by incubation in trypsin. Cells were then collected and re-plated in 48-well culture plates at 5×10^5 cells in 0.2 mL of culture medium containing 0.05 μCi [3H]-RA in the presence or absence of increasing concentrations of a test compound. The test compounds were diluted in dimethyl sulfoxide (DMSO) and then added in duplicate to wells at 0.01, 0.1, 1, 10 and 100 μM final concentration. […] Cells were incubated for 3 hours at 37° C. Retinoids were then extracted using the procedure of Bligh, et al., (1959), Canadian Journal of Biochemistry 37, 911-917, which was modified by using dichloromethane instead of chloroform. Each sample's water soluble radioactivity level was quantified using a β-scintillation counter (using Ecolume scintillation fluid, available from MP Biomedicals of Solon, Ohio, USA).
T1 sequence (O43174 whole entry): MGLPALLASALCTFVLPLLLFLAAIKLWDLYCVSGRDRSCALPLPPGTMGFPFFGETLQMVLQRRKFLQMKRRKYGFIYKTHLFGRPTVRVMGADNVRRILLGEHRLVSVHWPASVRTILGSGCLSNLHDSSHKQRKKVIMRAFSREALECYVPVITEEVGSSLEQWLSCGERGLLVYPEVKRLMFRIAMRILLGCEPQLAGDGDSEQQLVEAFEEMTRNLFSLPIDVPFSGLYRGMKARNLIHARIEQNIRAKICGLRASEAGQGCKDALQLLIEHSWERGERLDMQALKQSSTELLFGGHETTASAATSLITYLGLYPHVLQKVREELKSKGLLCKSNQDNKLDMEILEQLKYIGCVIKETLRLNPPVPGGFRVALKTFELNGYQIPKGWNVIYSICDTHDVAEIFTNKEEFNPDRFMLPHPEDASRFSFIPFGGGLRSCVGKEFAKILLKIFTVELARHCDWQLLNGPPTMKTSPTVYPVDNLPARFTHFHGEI

Cytochrome P450 26B1 = molecular target: T2, Cytochrome P450 26B1 (Homo sapiens, UniProt Q9NR63); experiment: as §1
T2 sequence (Q9NR63 whole entry): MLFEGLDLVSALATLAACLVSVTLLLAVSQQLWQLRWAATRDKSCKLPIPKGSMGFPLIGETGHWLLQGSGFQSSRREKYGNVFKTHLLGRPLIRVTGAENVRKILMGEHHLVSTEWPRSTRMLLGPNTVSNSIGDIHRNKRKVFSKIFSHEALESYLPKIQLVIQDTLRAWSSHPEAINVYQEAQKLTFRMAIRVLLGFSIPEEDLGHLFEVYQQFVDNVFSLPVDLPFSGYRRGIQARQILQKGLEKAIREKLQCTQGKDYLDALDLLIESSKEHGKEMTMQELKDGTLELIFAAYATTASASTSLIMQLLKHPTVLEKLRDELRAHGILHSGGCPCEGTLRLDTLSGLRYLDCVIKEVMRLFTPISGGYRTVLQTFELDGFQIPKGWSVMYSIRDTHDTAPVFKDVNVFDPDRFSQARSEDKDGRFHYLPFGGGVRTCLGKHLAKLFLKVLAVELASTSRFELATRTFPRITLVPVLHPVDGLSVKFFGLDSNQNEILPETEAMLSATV

Row | SMILES | pIC50 (Cytochrome P450 26A1) | IC50 (Cytochrome P450 26B1) [µM] | pIC50 (Cytochrome P450 26B1)
1 | Cc1cc2c(cc1S(=O)(=O)Nc1ccc(CC(=O)O)cc1)C(C)(C)CCC2(C)C | 6.33 | > 1000 | –
2 | Cc1ccc(NS(=O)(=O)c2cc(C)c3c(c2)C(C)(C)CC(C)(C)O3)cc1 | 5.72 | – | 4.66
